A value given as a limit tells only on which side of the number the result lay.

Test [1] addresses T1, α1-3galactosyltransferase (α1-3GalT) (Sus scrofa, UniProt P50127).
T1 construct: purchased Calbiochem
As to the kind of experiment: Continuous assay for α1-3GalT activity. The conditions noted are these: for inhibitory activity against α1-3GalT: highest concentration tested (500 μM). It is filed as biochemical, porcine. Here is the method: The enzymatic reactions contained the following components in a final volume of 100 μL: 20 mM MnCl2, 100 mM sodium cacodylate, pH 6.5, 5 U of pyruvate kinase, 5 U of lactate dehydrogenase, 2 mM PEP, 0.2 mM NADH with 0.4 mU of β1-4GalT, 1 mM βOMeGlcNAc, 25 μM UDP-Gal or 1.0 mU of α1-3GalT, 1 mM LacNAc, 100 μM UDP-Gal and various concentrations of 1-68A or 2-68A in 2.5% DMSO. The reaction mixtures were incubated at 37° C. for 10 min before the reaction was initiated by the addition of UDP-Gal. The change in absorbance was monitored over 20 min at 340 nm.
To determine the selectivity of the compounds among the broader family of UDP-sugar utilizing enzymes, 1-68A and 2-68A were tested against bovine β1-4galactosyltransferase (β1-4GalT) and porcine α1-3galactosyltransferase (α1-3GalT), using a previously reported continuous colorimetric assay. Fitzgerald et al. (1970) Anal. Biochem. 36:43-61. Neither compound was active against β1-4GalT or α1-3GalT at the highest concentration tested (500 μM) (Entries 9 and 10, Table 1).

Test [2] concerns the target T2, rppGalNAcT-10 (Rattus norvegicus, UniProt Q925R7).
T2 construct: plasmids encoding truncated secreted ppGalNAcTs-1 to −5, -7, -10 and -11; made in house; host or cells: COS-7
T2 sequence (Q925R7 32-603 limits assumed): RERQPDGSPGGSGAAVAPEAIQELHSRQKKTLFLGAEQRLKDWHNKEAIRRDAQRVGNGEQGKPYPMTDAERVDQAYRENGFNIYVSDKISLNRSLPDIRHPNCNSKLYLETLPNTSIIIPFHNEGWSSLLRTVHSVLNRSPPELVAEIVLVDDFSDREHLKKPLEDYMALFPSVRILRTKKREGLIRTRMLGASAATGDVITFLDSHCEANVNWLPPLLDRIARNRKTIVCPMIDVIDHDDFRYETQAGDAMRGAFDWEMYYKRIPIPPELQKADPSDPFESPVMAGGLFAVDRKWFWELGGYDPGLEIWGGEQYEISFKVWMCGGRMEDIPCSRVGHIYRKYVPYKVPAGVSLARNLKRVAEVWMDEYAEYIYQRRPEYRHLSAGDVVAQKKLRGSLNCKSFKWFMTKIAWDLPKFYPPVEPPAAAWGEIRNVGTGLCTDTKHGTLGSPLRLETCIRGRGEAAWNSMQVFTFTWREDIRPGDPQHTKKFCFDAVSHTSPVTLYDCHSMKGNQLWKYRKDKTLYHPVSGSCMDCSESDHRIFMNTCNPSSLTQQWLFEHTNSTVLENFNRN
As to the kind of experiment: Radiolabel capture assay, rppGalNAcT-10. The test is classed as biochemical. The conditions noted are these: MUC5AC glycopeptide. Here is the method:
Radiolabel capture assays using ^14C-labeled UDP-GalNAc were performed as previously described with various concentrations of 1-68A or 2-68A in 2% DMSO. Ten Hagen et al. (2001) J. Biol. Chem. 276:17395-17404.
Table 1. IC50 values for 1-68A and 2-68A with ppGalNAcTs-1 to −5, -7, -10, -11, β1-4GalT and α1-3GalT. The requirement of glycopeptides as substrates for ppGalNAcT-7 and -10 precluded the use of the ELLA, as both the substrate and product bind HPA-HRP. Thus, the radiolabel capture assay was employed to measure the IC50 values of 1-68A and 2-68A with ppGalNAcT-7 and -10 using MUC5AC (GTTPSPVPTTSTTSAP; SEQ ID NO:15) glycopeptide, previously shown to be substrate for both enzymes. Ten Hagen et al. (1999) J. Biol. Chem. 274:27867-27874; and Ten Hagen et al. (2001) J. Biol. Chem. 276:17395-17404. IC50 values of 1-68A and 2-68A with ppGalNAcT-5 were performed with α-FLAG purified enzyme and radiolabel capture assay, due to low activity and stability of the crude enzyme. m=murine, r=rattus.

Test [3] addresses T3, mppGalNAcT-2 (Mus musculus, UniProt Q6PB93).
T3 construct: plasmids encoding truncated secreted ppGalNAcTs-1 to −5, -7, -10 and -11; made in house; host or cells: COS-7
Nature of the test: ELLA for ppGalNAcTs, mppGalNAcT-2. Particulars: 20 μM UDP-GalNAc, 50 μM EA2 peptide 4. It is filed as biochemical, murine. Here is the method: COS-7 cells were transiently transfected with plasmids encoding truncated secreted ppGalNAcTs-1 to −5, -7, -10 and -11 as previously described. Hagen et al. (1997) J. Biol. Chem. 272:13843-13848. The crude conditioned medium was used as the enzyme source.
Standard reaction conditions for ppGalNAcT assays were as follows. The reaction mixture contained the following components in a final volume of 25 μL: 10 mM MnCl2, 40 mM sodium cacodylate, 40 mM β-mercaptoethanol, 0.1% Triton X-100, pH 6.5, 5 μL of conditioned media, and various concentrations of EA2 peptide 4, UDP-GalNAc and inhibitor. All uridine-based compounds were dissolved in dimethyl sulfoxide (DMSO). […] Reaction rates were linear over the period monitored (20-30 min).
96-Well NeutrAvidin-coated plates were prewashed 3 times with 200 μL of wash buffer (25 mM Tris, 150 mM NaCl, 0.1% bovine serum albumin (BSA) (w/v), and 0.05% Tween (v/v), pH 7.2). […] After 3 washes with 200 μL of PBS, bound HPA-HRP was quantified by the addition of 100 μL of TMB peroxide solution. […] HRP activity was terminated by the addition of 50 μL of 2 N H2SO4 and the resulting solution was analyzed at 450 nm using a UV/Vis microtiter plate reader. The amount of product generated by the ppGalNAcT was extrapolated from absorbance values using an equation fit to the standard curve derived from Origin 6.1 software.

T1 sequence (P50127 whole entry): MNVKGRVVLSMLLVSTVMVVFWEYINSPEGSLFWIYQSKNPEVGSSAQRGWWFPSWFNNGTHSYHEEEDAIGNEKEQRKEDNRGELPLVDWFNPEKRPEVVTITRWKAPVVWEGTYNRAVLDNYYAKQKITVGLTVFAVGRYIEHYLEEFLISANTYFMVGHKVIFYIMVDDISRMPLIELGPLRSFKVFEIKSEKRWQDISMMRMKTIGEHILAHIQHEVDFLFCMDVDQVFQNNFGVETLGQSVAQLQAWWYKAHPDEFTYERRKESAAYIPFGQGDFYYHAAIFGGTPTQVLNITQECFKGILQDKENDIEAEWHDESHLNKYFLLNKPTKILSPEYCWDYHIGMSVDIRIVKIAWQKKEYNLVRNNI
T3 sequence (Q6PB93 25-570 limits assumed): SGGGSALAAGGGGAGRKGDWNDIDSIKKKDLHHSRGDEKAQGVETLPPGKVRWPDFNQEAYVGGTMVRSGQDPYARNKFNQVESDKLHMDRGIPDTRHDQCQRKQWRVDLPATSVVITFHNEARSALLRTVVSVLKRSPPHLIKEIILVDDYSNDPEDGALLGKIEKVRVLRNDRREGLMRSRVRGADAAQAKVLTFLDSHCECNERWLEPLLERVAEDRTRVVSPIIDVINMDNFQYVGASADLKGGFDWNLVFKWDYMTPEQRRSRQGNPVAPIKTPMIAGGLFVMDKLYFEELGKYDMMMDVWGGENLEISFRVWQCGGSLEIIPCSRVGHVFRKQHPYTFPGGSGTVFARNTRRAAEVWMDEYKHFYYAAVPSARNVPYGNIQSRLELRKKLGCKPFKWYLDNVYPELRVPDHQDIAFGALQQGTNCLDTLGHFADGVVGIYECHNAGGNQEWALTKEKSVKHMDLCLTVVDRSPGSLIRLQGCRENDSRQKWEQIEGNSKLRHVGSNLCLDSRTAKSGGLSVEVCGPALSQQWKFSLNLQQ

As usually defined, the IC50 is the concentration that gives 50% inhibition. Lower therefore signals greater potency in that assay. As to `O=c1ccn([C@@H]2O[C@H](CON=Cc3ccc(O)c(O)c3O)[C@@H](O)[C@H]2O)c(=O)[nH]1` [1-68A], the 50% inhibitory concentration (IC50) is greater than 500 µM in test [1], 7 ± 1 µM in test [2] and 15 ± 1 µM in test [3]. In addition, in test [1], the “inhibitory activity against α1-3GalT” value is given as “lack of inhibitory activity”.

In the case of `O=C(CON=Cc1ccc(O)c(O)c1O)NC[C@H]1O[C@@H](n2ccc(=O)[nH]c2=O)[C@H](O)[C@@H]1O` [2-68A], the IC50 in test [1] is greater than 500 µM; in test [2] it was 6 ± 1 µM; in test [3] it was 18 ± 2 µM. The “inhibitory activity against α1-3GalT” value in test [1] is “lack of inhibitory activity”.

The values are drawn from patent US20060063736A1, “Compositions and methods for inhibiting mucin-type O-linked glycosylation” (priority 2004, published 2006).
